In patent US20250223268A1, “4-Methylsulfonylbenzamide Compound, Preparation Method, Herbicidal Composition And Use” (Jiangsu Flag Chemical Industry Co., Ltd., priority 2022, published 2025):

Columns and labels:
Test in all cases: Greenhouse herbicidal activity assay, post-emergence
Format in all cases: in vivo
Conditions in all cases: Post-emergence test, rate 150 g a.i./hm^2, grade by fresh weight inhibition rate
[1] = tested on: Cyperus iria
Summary of the method: (§1)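 Letter grades (A: ≥80% to 100%; C: ≥40% to <60%; E: <20%) express fresh weight inhibition recorded 14-21 days post-spray. Weeds were treated on the leaves once they reached 3-6 leaves in chamber-grown pots, allowed to dry naturally, then kept in the chamber.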

[2] = tested on: Digitaria sanguinalis
Summary of the method: as §1

[3] = tested on: Echinochloa crusgalli
Summary of the method: as §1

[4] = tested on: Eclipta prostrata
Summary of the method: as §1

[5] = tested on: Leptochloa chinensis
Summary of the method: as §1

**Q.** What does the source list for `CC(C)[S+]([O-])c1c(S(C)(=O)=O)ccc(C(=O)Nc2ncnn2C)c1Cl` (single isomer, unassigned) [Compound 2-8]?
**A.** Control efficacy grade, Cyperus iria [1]: A (Fresh weight inhibition rate≥80% to 100%); Control efficacy grade, Digitaria sanguinalis [2]: A (Fresh weight inhibition rate≥80% to 100%); Control efficacy grade, Echinochloa crusgalli [3]: A (Fresh weight inhibition rate≥80% to 100%); Control efficacy grade, Eclipta prostrata [4]: A (Fresh weight inhibition rate≥80% to 100%); Control efficacy grade, Leptochloa chinensis [5]: A (Fresh weight inhibition rate≥80% to 100%)

**Q.** Which “Control efficacy grade, Cyperus iria” value [1] does the source give for `CCCC[S+]([O-])c1c(S(C)(=O)=O)ccc(C(=O)Nc2nonc2C)c1Cl` (racemic) [Compound 4-12] here?
**A.** A (Fresh weight inhibition rate≥80% to 100%)

**Q.** What about the “Control efficacy grade, Digitaria sanguinalis” value [2] of the same compound?
**A.** A (Fresh weight inhibition rate≥80% to 100%)

**Q.** What about the “Control efficacy grade, Echinochloa crusgalli” value [3] of the same compound?
**A.** A (Fresh weight inhibition rate≥80% to 100%)

**Q.** What about the “Control efficacy grade, Eclipta prostrata” value [4] of the same compound?
**A.** A (Fresh weight inhibition rate≥80% to 100%)

**Q.** What about the “Control efficacy grade, Leptochloa chinensis” value [5] of the same compound?
**A.** B (Fresh weight inhibition rate≥260% to <80%)

**Q.** For `Cc1nnc(NC(=O)c2ccc(S(C)(=O)=O)c([S+]([O-])CC(F)F)c2Cl)o1` (racemic) [Compound 3-103], which “Control efficacy grade, Cyperus iria” value [1] is on record?
**A.** A (Fresh weight inhibition rate≥80% to 100%)

**Q.** And the “Control efficacy grade, Digitaria sanguinalis” value [2]?
**A.** A (Fresh weight inhibition rate≥80% to 100%)

**Q.** What about the “Control efficacy grade, Echinochloa crusgalli” value [3] of the same compound?
**A.** A (Fresh weight inhibition rate≥80% to 100%)

**Q.** What about the “Control efficacy grade, Eclipta prostrata” value [4] of the same compound?
**A.** A (Fresh weight inhibition rate≥80% to 100%)

**Q.** And the “Control efficacy grade, Leptochloa chinensis” value [5]?
**A.** A (Fresh weight inhibition rate≥80% to 100%)

**Q.** Which pest or weed control at 150 g/ha ([1]; Cyperus iria, read-out: Control efficacy grade, Cyperus iria) does the source give for `CC(C)[S+]([O-])c1c(S(C)(=O)=O)ccc(C(=O)Nc2ncnn2C)c1Cl` (racemic) [Compound 2-7, 2-chloro-3-(isopropylsulfinyl)-N-(1-methyl-1H-1,2,4-triazol-5-yl)-4-(methylsulfonyl)benzamide] here?
**A.** 80 to 100%

**Q.** And the pest or weed control at 150 g/ha ([2]; Digitaria sanguinalis, read-out: Control efficacy grade, Digitaria sanguinalis)?
**A.** 80 to 100%

**Q.** And the pest or weed control at 150 g/ha ([3]; Echinochloa crus-galli, read-out: Control efficacy grade, Echinochloa crusgalli)?
**A.** 80 to 100%

**Q.** And the pest or weed control at 150 g/ha ([4]; Eclipta prostrata, read-out: Control efficacy grade, Eclipta prostrata)?
**A.** 80 to 100%

**Q.** And the pest or weed control at 150 g/ha ([5]; Dinebra chinensis, read-out: Control efficacy grade, Leptochloa chinensis)?
**A.** 80 to 100%

**Q.** Which results are given for `Cn1nnnc1NC(=O)c1ccc(S(C)(=O)=O)c(SCC(F)(F)F)c1Cl` [Compound 1-52]?
**A.** Control efficacy grade, Cyperus iria [1]: A (Fresh weight inhibition rate≥80% to 100%); Control efficacy grade, Digitaria sanguinalis [2]: A (Fresh weight inhibition rate≥80% to 100%); Control efficacy grade, Echinochloa crusgalli [3]: A (Fresh weight inhibition rate≥80% to 100%); Control efficacy grade, Eclipta prostrata [4]: A (Fresh weight inhibition rate≥80% to 100%); Control efficacy grade, Leptochloa chinensis [5]: A (Fresh weight inhibition rate≥80% to 100%)

**Q.** Which “Control efficacy grade, Cyperus iria” value [1] does the source give for `Cc1nnc(NC(=O)c2ccc(S(C)(=O)=O)c([S+]([O-])C3CCC3)c2Cl)o1` (racemic) [Compound 3-83] here?
**A.** A (Fresh weight inhibition rate≥80% to 100%)

**Q.** What about the “Control efficacy grade, Digitaria sanguinalis” value [2] of the same compound?
**A.** A (Fresh weight inhibition rate≥80% to 100%)

**Q.** What about the “Control efficacy grade, Echinochloa crusgalli” value [3] of the same compound?
**A.** A (Fresh weight inhibition rate≥80% to 100%)

**Q.** What about the “Control efficacy grade, Eclipta prostrata” value [4] of the same compound?
**A.** A (Fresh weight inhibition rate≥80% to 100%)

**Q.** What about the “Control efficacy grade, Leptochloa chinensis” value [5] of the same compound?
**A.** A (Fresh weight inhibition rate≥80% to 100%)

**Q.** Which results are given for `CC(C)[S+]([O-])c1c(S(C)(=O)=O)ccc(C(=O)Nc2nnn[nH]2)c1Cl` (racemic) [Compound 1-83]?
**A.** Control efficacy grade, Cyperus iria [1]: A (Fresh weight inhibition rate≥80% to 100%); Control efficacy grade, Digitaria sanguinalis [2]: A (Fresh weight inhibition rate≥80% to 100%); Control efficacy grade, Echinochloa crusgalli [3]: A (Fresh weight inhibition rate≥80% to 100%); Control efficacy grade, Eclipta prostrata [4]: A (Fresh weight inhibition rate≥80% to 100%); Control efficacy grade, Leptochloa chinensis [5]: A (Fresh weight inhibition rate≥80% to 100%)

**Q.** With `CC(C)c1nnc(NC(=O)c2ccc(S(C)(=O)=O)c([S+]([O-])CC(F)(F)F)c2Cl)o1` (racemic) [Compound 3-556] as the compound, how does the “Control efficacy grade, Cyperus iria” value [1] read?
**A.** A (Fresh weight inhibition rate≥80% to 100%)

**Q.** And the “Control efficacy grade, Digitaria sanguinalis” value [2]?
**A.** B (Fresh weight inhibition rate≥260% to <80%)

**Q.** And the “Control efficacy grade, Echinochloa crusgalli” value [3]?
**A.** B (Fresh weight inhibition rate≥260% to <80%)

**Q.** What about the “Control efficacy grade, Eclipta prostrata” value [4] of the same compound?
**A.** A (Fresh weight inhibition rate≥80% to 100%)

**Q.** What about the “Control efficacy grade, Leptochloa chinensis” value [5] of the same compound?
**A.** A (Fresh weight inhibition rate≥80% to 100%)

**Q.** Which “Control efficacy grade, Cyperus iria” value [1] does the source give for `CS(=O)(=O)c1ccc(C(=O)Nc2nnco2)c(Cl)c1SC1CCC1` [Compound 3-308] here?
**A.** A (Fresh weight inhibition rate≥80% to 100%)

**Q.** What about the “Control efficacy grade, Digitaria sanguinalis” value [2] of the same compound?
**A.** A (Fresh weight inhibition rate≥80% to 100%)

**Q.** And the “Control efficacy grade, Echinochloa crusgalli” value [3]?
**A.** A (Fresh weight inhibition rate≥80% to 100%)

**Q.** And the “Control efficacy grade, Eclipta prostrata” value [4]?
**A.** A (Fresh weight inhibition rate≥80% to 100%)

**Q.** What about the “Control efficacy grade, Leptochloa chinensis” value [5] of the same compound?
**A.** A (Fresh weight inhibition rate≥80% to 100%)

**Q.** How did the “Control efficacy grade, Cyperus iria” value [1] turn out when `CCc1nnc(NC(=O)c2ccc(S(C)(=O)=O)c([S+]([O-])CC(F)(F)F)c2Cl)o1` (racemic) [Compound 3-440] was run?
**A.** A (Fresh weight inhibition rate≥80% to 100%)

**Q.** And the “Control efficacy grade, Digitaria sanguinalis” value [2]?
**A.** A (Fresh weight inhibition rate≥80% to 100%)

**Q.** What about the “Control efficacy grade, Echinochloa crusgalli” value [3] of the same compound?
**A.** A (Fresh weight inhibition rate≥80% to 100%)

**Q.** And the “Control efficacy grade, Eclipta prostrata” value [4]?
**A.** A (Fresh weight inhibition rate≥80% to 100%)

**Q.** What about the “Control efficacy grade, Leptochloa chinensis” value [5] of the same compound?
**A.** A (Fresh weight inhibition rate≥80% to 100%)

**Q.** What does the source list for `CCC[S+]([O-])c1c(S(C)(=O)=O)ccc(C(=O)Nc2ncnn2C)c1Cl` (racemic) [Compound 2-2]?
**A.** Control efficacy grade, Cyperus iria [1]: A (Fresh weight inhibition rate≥80% to 100%); Control efficacy grade, Digitaria sanguinalis [2]: A (Fresh weight inhibition rate≥80% to 100%); Control efficacy grade, Echinochloa crusgalli [3]: A (Fresh weight inhibition rate≥80% to 100%); Control efficacy grade, Eclipta prostrata [4]: A (Fresh weight inhibition rate≥80% to 100%); Control efficacy grade, Leptochloa chinensis [5]: A (Fresh weight inhibition rate≥80% to 100%)

**Q.** `COCSc1c(S(C)(=O)=O)ccc(C(=O)Nc2nnc(C)o2)c1Cl` [Compound 3-262] was tested. Which “Control efficacy grade, Cyperus iria” value [1] did it give?
**A.** A (Fresh weight inhibition rate≥80% to 100%)

**Q.** And the “Control efficacy grade, Digitaria sanguinalis” value [2]?
**A.** A (Fresh weight inhibition rate≥80% to 100%)

**Q.** And the “Control efficacy grade, Echinochloa crusgalli” value [3]?
**A.** A (Fresh weight inhibition rate≥80% to 100%)

**Q.** And the “Control efficacy grade, Eclipta prostrata” value [4]?
**A.** A (Fresh weight inhibition rate≥80% to 100%)

**Q.** And the “Control efficacy grade, Leptochloa chinensis” value [5]?
**A.** A (Fresh weight inhibition rate≥80% to 100%)

**Q.** For `Cc1nnc(NC(=O)c2ccc(S(C)(=O)=O)c([S+]([O-])CC(F)(F)F)c2Cl)o1` (racemic) [Compound 3-98], which “Control efficacy grade, Cyperus iria” value [1] is on record?
**A.** A (Fresh weight inhibition rate≥80% to 100%)

**Q.** What about the “Control efficacy grade, Digitaria sanguinalis” value [2] of the same compound?
**A.** A (Fresh weight inhibition rate≥80% to 100%)

**Q.** What about the “Control efficacy grade, Echinochloa crusgalli” value [3] of the same compound?
**A.** A (Fresh weight inhibition rate≥80% to 100%)

**Q.** What about the “Control efficacy grade, Eclipta prostrata” value [4] of the same compound?
**A.** A (Fresh weight inhibition rate≥80% to 100%)

**Q.** And the “Control efficacy grade, Leptochloa chinensis” value [5]?
**A.** A (Fresh weight inhibition rate≥80% to 100%)

**Q.** What does the source list for `C=CCSc1c(S(C)(=O)=O)ccc(C(=O)Nc2nnc(C)o2)c1Cl` [Compound 3-112]?
**A.** Control efficacy grade, Cyperus iria [1]: A (Fresh weight inhibition rate≥80% to 100%); Control efficacy grade, Digitaria sanguinalis [2]: A (Fresh weight inhibition rate≥80% to 100%); Control efficacy grade, Echinochloa crusgalli [3]: A (Fresh weight inhibition rate≥80% to 100%); Control efficacy grade, Eclipta prostrata [4]: A (Fresh weight inhibition rate≥80% to 100%); Control efficacy grade, Leptochloa chinensis [5]: A (Fresh weight inhibition rate≥80% to 100%)

**Q.** For `Cc1nnc(NC(=O)c2ccc(S(C)(=O)=O)c([S+]([O-])CC#N)c2Cl)o1` (racemic) [Compound 3-193], which “Control efficacy grade, Cyperus iria” value [1] is on record?
**A.** A (Fresh weight inhibition rate≥80% to 100%)

**Q.** What about the “Control efficacy grade, Digitaria sanguinalis” value [2] of the same compound?
**A.** B (Fresh weight inhibition rate≥260% to <80%)

**Q.** And the “Control efficacy grade, Echinochloa crusgalli” value [3]?
**A.** A (Fresh weight inhibition rate≥80% to 100%)

**Q.** And the “Control efficacy grade, Eclipta prostrata” value [4]?
**A.** A (Fresh weight inhibition rate≥80% to 100%)

**Q.** And the “Control efficacy grade, Leptochloa chinensis” value [5]?
**A.** A (Fresh weight inhibition rate≥80% to 100%)

**Q.** Which results are given for `Cn1ncnc1NC(=O)c1ccc(S(C)(=O)=O)c([S+]([O-])C2CCC2)c1Cl` (racemic) [Compound 2-38]?
**A.** Control efficacy grade, Cyperus iria [1]: A (Fresh weight inhibition rate≥80% to 100%); Control efficacy grade, Digitaria sanguinalis [2]: A (Fresh weight inhibition rate≥80% to 100%); Control efficacy grade, Echinochloa crusgalli [3]: A (Fresh weight inhibition rate≥80% to 100%); Control efficacy grade, Eclipta prostrata [4]: A (Fresh weight inhibition rate≥80% to 100%); Control efficacy grade, Leptochloa chinensis [5]: A (Fresh weight inhibition rate≥80% to 100%)
